Source: US10364245B2 (CHIESI FARMACEUTICI S.p.A., priority 2017, dated 2019)

Columns and labels:
[1] = system: Peripheral Blood Mononuclear Cells (PBMCs), TNFα release; test: LPS-stimulated PBMC TNFα release assay; format: cell-based; conditions: human PBMC, LPS (10 ng/ml), 18 h, compound 1 h before LPS; read-out: LPS-stimulated PBMC TNFα release inhibition
How it was run: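 TNFα in cell-free supernatant, read on MSD plates, gave % inhibition curves and IC50 (≥3 separate experiments). Healthy-donor PBMCs had 1 h compound exposure at 37 °C in 1% FBS medium, then 18 h stimulation with 10 ng/ml LPS, after a 3 h serum-free rest.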

p38 alpha = biological target: T1, p38 alpha (Homo sapiens, UniProt Q16539); test: P38 alpha enzyme inhibition assay (Alphascreen kinase activity assay); format: biochemical; conditions: 100 pM p38 alpha, 2 hours preincubation at 25° C., 250 μM ATP, ATF-2 fusion protein; read-out: p38α inhibition
T1 construct: purchased Invitrogen PV3304
T1 sequence (Q16539 whole entry, the tested form may be a part): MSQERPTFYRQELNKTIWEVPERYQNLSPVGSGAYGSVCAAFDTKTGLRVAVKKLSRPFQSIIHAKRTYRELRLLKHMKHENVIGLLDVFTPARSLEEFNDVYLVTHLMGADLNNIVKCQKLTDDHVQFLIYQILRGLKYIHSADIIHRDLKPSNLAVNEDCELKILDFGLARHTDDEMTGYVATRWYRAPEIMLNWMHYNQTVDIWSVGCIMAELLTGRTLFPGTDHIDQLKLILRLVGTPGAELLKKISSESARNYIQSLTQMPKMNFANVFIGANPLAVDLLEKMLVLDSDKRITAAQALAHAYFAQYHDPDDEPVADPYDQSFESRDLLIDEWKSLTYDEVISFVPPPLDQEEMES
How it was run: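 Phosphorylation of ATF-2 fusion protein (0.3 μg/ml) read by AlphaScreen with anti-phospho-ATF2 antibody after 1 h kinase reaction at 25 °C, initiated by 250 μM ATP. Compounds first incubated 2 h at 25 °C with 100 pM p38 alpha in pH 7.5 HEPES buffer, 1% DMSO. IC50 derived from concentration-response data.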

| SMILES | IC50 [1] [nM] | IC50 (p38 alpha) [nM] |
| --- | --- | --- |
| CCC(CC)c1nnc2ccc(O[C@@H]3CC[C@H](NC(=O)Nc4cc(C(C)(C)C)nc(C(=O)NC5CN(C)C5)n4)c4ccccc43)cn12 [Example 84, 4-(tert-butyl)-N-(1-methylazetidin-3-yl)-6-(3-((1S,4R)-4-((3-(pentan-3-yl)-[1,2,4]triazolo[4,3-a]pyridin-6-yl)oxy)-1,2,3,4-tetrahydronaphthalen-1-yl)ureido)pyrimidine-2-carboxamide] | > 5 | < 1 |
| CCC(CC)c1nnc2ccc(O[C@@H]3CC[C@H](NC(=O)Nc4cc(C(C)(C)C)nc(C(=O)NCCN(CCOC)CCOC)n4)c4ccccc43)cn12 [Example 85, N-(2-(bis(2-methoxyethyl)amino)ethyl)-4-(tert-butyl)-6-(3-((1S,4R)-4-((3-(pentan-3-yl)-[1,2,4]triazolo[4,3-a]pyridin-6-yl)oxy)-1,2,3,4-tetrahydronaphthalen-1-yl)ureido)pyrimidine-2-carboxamide] | > 5 | < 1 |
| COCCN(CCOC)Cc1nc(NC(=O)N[C@H]2CC[C@@H](Oc3ccc4nnc(C(C)(C)C)n4c3)c3ccccc32)cc(C(C)(C)C)n1 [Example 86, 1-(2-((bis(2-methoxyethyl)amino)methyl)-6-(tert-butyl)pyrimidin-4-yl)-3-((1S,4R)-4-((3-(tert-butyl)-[1,2,4]triazolo[4,3-a]pyridin-6-yl)oxy)-1,2,3,4-tetrahydronaphthalen-1-yl)urea] | > 5 | 1 to 10 |
| CC(C)(C)c1cc(NC(=O)N[C@H]2CC[C@@H](Oc3ccc4nnc(C(C)(C)C)n4c3)c3ccccc32)nc(CN(CCO)CCO)n1 [Example 87, 1-(2-((bis(2-hydroxyethyl)amino)methyl)-6-(tert-butyl)pyrimidin-4-yl)-3-((1S,4R)-4-((3-(tert-butyl)-[1,2,4]triazolo[4,3-a]pyridin-6-yl)oxy)-1,2,3,4-tetrahydronaphthalen-1-yl)urea] | > 5 | < 1 |
| CN(CCO)Cc1nc(NC(=O)N[C@H]2CC[C@@H](Oc3ccc4nnc(C(C)(C)C)n4c3)c3ccccc32)cc(C(C)(C)C)n1 [Example 88, 1-(6-(tert-butyl)-2-(((2-hydroxyethyl)(methyl)amino)methyl)pyrimidin-4-yl)-3-((1S,4R)-4-((3-(tert-butyl)-[1,2,4]triazolo[4,3-a]pyridin-6-yl)oxy)-1,2,3,4-tetrahydronaphthalen-1-yl)urea] | > 5 | 1 to 10 |
| CC(C)(C)c1cc(NC(=O)N[C@H]2CC[C@@H](Oc3ccc4nnc(C(C)(C)C)n4c3)c3ccccc32)nc(C(=O)NCCN2CCCOCC2)n1 [Example 89, N-(2-(1,4-oxazepan-4-yl)ethyl)-4-(tert-butyl)-6-(3-((1S,4R)-4-((3-(tert-butyl)-[1,2,4]triazolo[4,3-a]pyridin-6-yl)oxy)-1,2,3,4-tetrahydronaphthalen-1-yl)ureido)pyrimidine-2-carboxamide] | 1 to 5 | 1 to 10 |
| CC(C)Cc1nnc2ccc(O[C@@H]3CC[C@H](NC(=O)Nc4cc(C(C)(C)C)nc(C(=O)NCCN(C)C)n4)c4ccccc43)cn12 [Example 91, 4-(tert-butyl)-N-(2-(dimethylamino)ethyl)-6-(3-((1S,4R)-4-((3-isobutyl-[1,2,4]triazolo[4,3-a]pyridin-6-yl)oxy)-1,2,3,4-tetrahydronaphthalen-1-yl)ureido)pyrimidine-2-carboxamide] | > 5 | 1 to 10 |
| COCCN(CCNC(=O)c1nc(NC(=O)N[C@H]2CC[C@@H](Oc3ccc4nnc(C(C)(C)C)n4c3)c3ccccc32)cc(C(C)(C)C)n1)CCOC [Example 92, N-(2-(bis(2-methoxyethyl)amino)-ethyl)-4-(tert-butyl)-6-(3-((1S,4R)-4-((3-(tert-butyl)-[1,2,4]triazolo[4,3-a]pyridin-6-yl)oxy)-1,2,3,4-tetrahydronaphthalen-1-yl)ureido)pyrimidine-2-carboxamide] | > 5 | 1 to 10 |
| CC(C)(C)c1cc(NC(=O)N[C@H]2CC[C@@H](Oc3ccc4nnc(C(C)(C)C)n4c3)c3ccccc32)nc(C(=O)NCCN2CC[C@@H](O)C2)n1 [Example 93, 4-(tert-butyl)-6-(3-((1S,4R)-4-((3-(tert-butyl)-[1,2,4]triazolo[4,3-a]pyridin-6-yl)oxy)-1,2,3,4-tetrahydronaphthalen-1-yl)ureido)-N-(2-((R)-3-hydroxypyrrolidin-1-yl)ethyl)pyrimidine-2-carboxamide] | > 5 | < 1 |
| CC(C)(C)c1cc(NC(=O)N[C@H]2CC[C@@H](Oc3ccc4nnc(C(C)(C)C)n4c3)c3ccccc32)nc(C(=O)NCCN2CC[C@H](O)C2)n1 [Example 94, 4-(tert-butyl)-6-(3-((1S,4R)-4-((3-(tert-butyl)-[1,2,4]triazolo[4,3-a]pyridin-6-yl)oxy)-1,2,3,4-tetrahydronaphthalen-1-yl)ureido)-N-(2-((S)-3-hydroxypyrrolidin-1-yl)ethyl)pyrimidine-2-carboxamide] | > 5 | < 1 |
| COC(C)(C)c1nnc2ccc(O[C@@H]3CC[C@H](NC(=O)Nc4cc(C(C)(C)C)nc(C(=O)NCCN5CCOCC5)n4)c4ccccc43)cn12 [Example 95, 4-(tert-butyl)-6-(3-((1S,4R)-4-((3-(2-methoxypropan-2-yl)-[1,2,4]triazolo[4,3-a]pyridin-6-yl)oxy)-1,2,3,4-tetrahydronaphthalen-1-yl)ureido)-N-(2-morpholinoethyl)-pyrimidine-2-carboxamide] | > 5 | 1 to 10 |
| COC(C)(C)c1nnc2ccc(O[C@@H]3CC[C@H](NC(=O)Nc4cc(C(C)(C)C)nc(C(=O)NCCN(C)C)n4)c4ccccc43)cn12 [Example 96, 4-(tert-butyl)-N-(2-(dunethylamino)ethyl)-6-(3-((1S,4R)-4-((3-(2-methoxypropan-2-yl)-[1,2,4]triazolo[4,3-a]pyridin-6-yl)oxy)-1,2,3,4-tetrahydronaphthalen-1-yl)ureido)pyrimidine-2-carboxamide] | 1 to 5 | 1 to 10 |
| COCC(C)(C)c1nnc2ccc(O[C@@H]3CC[C@H](NC(=O)Nc4cc(C(C)(C)C)nc(C(=O)NCCN5CCOCC5)n4)c4ccccc43)cn12 [Example 97, 4-(tert-butyl)-6-(3-((1S,4R)-4-((3-(1-methoxy-2-methylpropan-2-yl)-[1,2,4]triazolo[4,3-a]pyridin-6-yl)oxy)-1,2,3,4-tetrahydronaphthalen-1-yl)ureido)-N-(2-morpholinoethyl)-pyrimidine-2-carboxamide] | > 5 | < 1 |
| CC(C)(C)Cc1nnc2ccc(O[C@@H]3CC[C@H](NC(=O)Nc4cc(C(C)(C)C)nc(C(=O)NCCN5CCOCC5)n4)c4ccccc43)cn12 [Example 99, 4-(tert-butyl)-N-(2-morpholinoethyl)-6-(3-((1S,4R)-4-((3-neopentyl-[1,2,4]triazolo[4,3-a]pyridin-6-yl)oxy)-1,2,3,4-tetrahydronaphthalen-1-yl)ureido)pyrimidine-2-carboxamide] | > 5 | 1 to 10 |
| CC[C@H](C)c1nnc2ccc(O[C@@H]3CC[C@H](NC(=O)Nc4cc(C(C)(C)C)nc(C(=O)NCCN(C)C)n4)c4ccccc43)cn12 [Example 100, 4-(tert-butyl)-6-(3-((1S,4R)-4-((3-((S)-sec-butyl)-[1,2,4]triazolo[4,3-a]pyridin-6-yl)oxy)-1,2,3,4-tetrahydronaphthalen-1-yl)ureido)-N-(2-(dimethylamino)ethyl)-pyrimidine-2-carboxamide] | 1 to 5 | < 1 |
| CC[C@H](C)c1nnc2ccc(O[C@@H]3CC[C@H](NC(=O)Nc4cc(C(C)(C)C)nc(C(=O)NCCN5CCOCC5)n4)c4ccccc43)cn12 [Example 102, 4-(tert-butyl)-6-(3-((1S,4R)-4-((3-((S)-sec-butyl)-[1,2,4]triazolo[4,3-a]pyridin-6-yl)oxy)-1,2,3,4-tetrahydronaphthalen-1-yl)ureido)-N-(2-morpholinoethyl)-pyrimidine-2-carboxamide] | > 5 | < 1 |
| CC(C)(C)c1cc(NC(=O)N[C@H]2CC[C@@H](Oc3ccc4nnc(C(C)(C)C)n4c3)c3ccccc32)nc(CNC(=O)CCN2CCOCC2)n1 [Example 103, N-((4-(tert-butyl)-6-(3-((1S,4R)-4-((3-(tert-butyl)-[1,2,4]-triazolo[4,3-a]pyridin-6-yl)oxy)-1,2,3,4-tetrahydronaphthalen-1-yl)ureido)pyrimidin-2-yl)methyl)-3-morpholinopropanamide] | > 5 | 1 to 10 |
| COC1CN(CCNC(=O)c2nc(NC(=O)N[C@H]3CC[C@@H](Oc4ccc5nnc(C(C)(C)C)n5c4)c4ccccc43)cc(C(C)(C)C)n2)C1 [Example 104, 4-(tert-butyl)-6-(3-((1S,4R)-4-((3-(tert-butyl)-[1,2,4]triazolo[4,3-a]pyridin-6-yl)oxy)-1,2,3,4-tetrahydronaphthalen-1-yl)ureido)-N-(2-(3-methoxyazetidin-1-yl)ethyl)pyrimidine-2-carboxamide] | < 1 | 1 to 10 |
| CC[C@H](C)c1nnc2ccc(O[C@@H]3CC[C@H](NC(=O)Nc4cc(C(C)(C)C)nc(C(=O)NCCN(C)CCOC)n4)c4ccccc43)cn12 [Example 105, 4-(tert-butyl)-6-(3-((1S,4R)-4-((3-((S)-sec-butyl)-[1,2,4]triazolo[4,3-a]pyridin-6-yl)oxy)-1,2,3,4-tetrahydronaphthalen-1-yl)ureido)-N-(2-((2-methoxyethyl)(methyl)-amino)ethyl)pyrimidine-2-carboxamide] | 1 to 5 | < 1 |
